Data reported in patent publication US20130029981A1, “COMPOUNDS, COMPOSITIONS, AND METHODS FOR CONTROLLING BIOFILMS” (Katholieke Universiteit Leuven, priority 2009, published 2013).
“And” between values parts separate entries of the source, which are not always exact repeats. Equal values may be shown once. Read-outs that look alike come from different tables or passages of the source.

Key:
S. Typhimurium ATCC14028 = assay: Static peg assay for prevention of biofilm formation (Calgary device, crystal violet); assay type: cell-based, Salmonella Typhimurium; details: 25° C.
How it was run: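 Calgary 96-peg device, ca. 10^6 cells of ATCC14028 per well in TSB 1/20 for 24 h at 25° C (or 48 h at 16° C, medium and compound renewed at 24 h), or in CFA broth for 24 h at 37° C, static, with two-fold compound dilutions. Crystal violet stain, acetic acid extraction, OD570. IC50 from 2–3 independent experiments.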

[1] = test system: Pseudomonas aeruginosa PA14; assay: as above; assay type: cell-based
How it was run: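 P. aeruginosa PA14 overnight TSB culture diluted 1:100 into broth with two-fold compound dilutions, biofilms grown 24 h static on polystyrene pegs of a Calgary device at 25 °C (TSB 1/20), 30 °C or 37 °C (CFA and/or LBNS). Biofilm quantified by crystal violet, extracted with 30% acetic acid, A570.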

[2] = Table 11, read-out: IC50 (biofilm formation)
[3] = Table 14, read-out: IC50 biofilm inhibition
[4] = Table 18, read-out: S. Typhimurium IC50 (biofilm formation)
[5] = 25° C., Table 12, read-out: IC50 (biofilm formation)
[6] = 25° C., Table 14, read-out: IC50 biofilm inhibition
[7] = 25° C., Table 18, read-out: P. aeruginosa IC50 (biofilm formation)
[8] = 37° C., read-out: IC50 (biofilm formation)

Row | SMILES | IC50 (S. Typhimurium ATCC14028; [2]) [µM] | IC50 (S. Typhimurium ATCC14028; [3]) [µM] | IC50 (S. Typhimurium ATCC14028; [4]) [µM] | IC50 [1, 5] [µM] | IC50 [1, 6] [µM] | IC50 [1, 7] [µM] | IC50 [1, 8] [µM] | further results
1 | CCCCCCN1c2nccc[n+]2CC1(O)c1ccc([N+](=O)[O-])cc1.[Br-] (stereo not shown) [Compound 34] | 46.8 | 46.8 | – | – | – | – | – | IC50 (S. Typhimurium ATCC14028; 24 hours, Table 15, read-out: (1) IC50 (biofilm inhibition)): 54.7 µM; IC50 (S. Typhimurium ATCC14028; Table 16, read-out: S. Typhimurium IC50 (biofilm formation)): 54.7 µM; IC50 ([1]; 25° C., 24 hours, Table 15, read-out: (2) IC50 (biofilm inhibition)): 10.9 µM; IC50 ([1]; 25° C., Table 16, read-out: P. aeruginosa IC50 (biofilm formation)): 12.4 µM
2 | OC1(c2ccc(Cl)cc2)C[n+]2cccnc2N1C1CCCCC1.[Br-] (stereo not shown) [Compound 64] | – | – | 33 | 4.94 | 4.94 | 10 | – | IC50 (S. Typhimurium ATCC14028; Table 11, listed as R1=cyclohexyl, R3=4-Cl—Ph, R4=H, read-out: IC50 (biofilm formation)): 43.8 µM and 35.6 µM; IC50 (S. Typhimurium ATCC14028; Table 14, listed as R1=Cyclohexyl, R3=4-ClPh, R4=H, read-out: IC50 biofilm inhibition): 43.8 µM and 35.6 µM
3 | O=[N+]([O-])c1ccc(C2(O)C[n+]3cccnc3N2C2CCCCCCCCCCC2)cc1.[Br-] (stereo not shown) [Compound 69] | < 6.25 | < 6.25 | < 6.3 | 6.32 | 6.32 | 6.9 | 18.2 | –
4 | OC1(c2ccc(I)cc2)C[n+]2cccnc2N1Cc1ccccc1.[Br-] (stereo not shown) [Compound 73] | – | – | – | 8.61 | 8.61 | – | 175 | IC50 (S. Typhimurium ATCC14028; Table 11, listed as R1=Bn, R3=4-I—Ph, R4=H, read-out: IC50 (biofilm formation)): 30.7 µM and 26.9 µM; IC50 (S. Typhimurium ATCC14028; Table 14, listed as R1=Bn, R3=4-IPh, R4=H, read-out: IC50 biofilm inhibition): 26.9 µM; IC50 (S. Typhimurium ATCC14028; Table 14, listed as R1=Bn, R3=4-Iph, R4=H, read-out: IC50 biofilm inhibition): 30.7 µM; IC50 (S. Typhimurium ATCC14028; Table 19, read-out: IC50 (biofilm formation)): 36.7 µM
5 | OC1(c2ccc(-c3ccccc3)cc2)C[n+]2cccnc2N1C1CCCC1.[Br-] (stereo not shown) [R1=Cyclopentyl, R3=4-biphenylyl, R4=H, 1-cyclopentyl-2-hydroxy-2-(4-biphenylyl)-2,3-dihydro-1H-imidazo[1,2-a]pyrimidin-4-ium bromide] | – | – | – | – | – | – | – | IC50 (S. Typhimurium ATCC14028; Salmonella enterica, Table 11, read-out: IC50 (biofilm formation)): 14.9 µM; IC50 (S. Typhimurium ATCC14028; Salmonella enterica, Table 14, read-out: IC50 biofilm inhibition): 14.9 µM; IC50 ([1]; Pseudomonas aeruginosa, PA14, 25° C., Table 12, read-out: IC50 (biofilm formation)): 1.57 µM; IC50 ([1]; Pseudomonas aeruginosa, PA14, 25° C., Table 14, read-out: IC50 biofilm inhibition): 1.57 µM; IC50 ([1]; Pseudomonas aeruginosa, PA14, 37° C., read-out: IC50 (biofilm formation)): 62.1 µM
